Test results from patent US20250127159A1, “PAPER-BASED CRYOPRESERVATION OF MAMMALIAN CELL AGGREGATES” (New York University in Abu Dhabi Corporation, priority 2023, published 2025).

Columns and labels:
U87 spheroids [1] = assay: WST-1 metabolic activity of U87 spheroids under drug or DMSO treatment; format: cell-based
Procedure: (§1) The spheroids were subjected to drug testing at varying concentrations, with DMSO serving as a solvent control. This experimental approach aimed to dissect the impact of both DMSO and drug compounds on the metabolic activity and viability of U87 spheroids.
(§2) Control tests were first conducted with DMSO at concentrations of 1%, 2.5%, 5%, 10%, and 20% (v/v) to assess its cytotoxic effects independently of drug action. The metabolic activity of the spheroids was monitored at 0, 6, 12, 24, and 48 hours, followed by a live/dead assay at 48 hours to assess cell viability.
(§3) Spheroid metabolic activity was measured at 6, 12, 24, and 48 hours using the WST-1 assay, and viability was assessed at 48 hours via the live/dead assay.

in vitro = conditions: human
Procedure: as §1, §2, §3

U87 spheroids [2] = assay: live/dead viability assay of U87 spheroids at 48 hours
Procedure: as §1, §2, §3

Which results are given for N.N.[Cl][Pt][Cl] [Cisplatin]?
response at higher doses (U87 spheroids [1]; cryopreserved spheroids, 10 μM and above): delayed response; metabolic activity (U87 spheroids [1]; cryopreserved spheroids, doses as low as 0.1 μM): metabolic activity decreasing; metabolic activity (U87 spheroids [1]; normally grown spheroids, doses ≥10 μM): significantly reduced metabolic activity

Which metabolic activity (U87 spheroids [1]; cryopreserved spheroids, 10% and 20% DMSO) does the source give for C[S+](C)[O-] [DMSO, dimethyl sulfoxide] here?
The metabolic activity was “declining sharply”.

And the metabolic activity (U87 spheroids [1]; normally grown spheroids, 1% DMSO (v/v), over 48 hours)?
Its metabolic activity is “linear increase in metabolic activity”.

And the metabolic activity (U87 spheroids [1]; normally grown spheroids, higher concentrations (5%, 10%, 20% DMSO))?
The metabolic activity was “temporary reductions in metabolic activity at the 6-hour mark, followed by partial recovery”.

And the viability at 48 h, 1 % (v/v) (in vitro)?
The viability at 48 h, 1 % (v/v) was over 99%.

And the viability at 48 h, 5 % (v/v) (in vitro)?
The viability at 48 h, 5 % (v/v) was over 99%.

What about the viability at 48 h, 10 % (v/v) (in vitro) of the same compound?
The viability at 48 h, 10 % (v/v) was under 50%.

What about the viability at 48 h, 20 % (v/v) (in vitro) of the same compound?
Its viability at 48 h, 20 % (v/v) is 5%.

And the cell viability (U87 spheroids [2]; 10% and 20% DMSO, particularly in cryopreserved samples)?
The cell viability was “viability decreased”.

What does the source list for Cn1nnc2c(C(N)=O)ncn2c1=O [TMZ]?
metabolic activity and viability compared to normally grown spheroids (U87 spheroids [1]; cryopreserved spheroids, comparable doses): slightly higher metabolic activity and viability; response timing (U87 spheroids [1]; cryopreserved spheroids, more substantial reductions at 400 μM and 800 μM): slightly delayed responses; metabolic activity (U87 spheroids [1]; doses ≥100 μM, both normal and cryopreserved spheroids): metabolic activity was suppressed; viability (U87 spheroids [2]; 400 μM): below 30%; viability (U87 spheroids [2]; 800 μM): below 30%
